Measured values reported in ChEMBL document CHEMBL1145498, “A systematic interaction map of validated kinase inhibitors with Ser/Thr kinases” (Proc Natl Acad Sci U S A, 2007).

What was measured:
[1] = molecular target: T1, Myotonin-protein kinase (Homo sapiens) (UniProt Q09013)
T1 sequence (whole entry): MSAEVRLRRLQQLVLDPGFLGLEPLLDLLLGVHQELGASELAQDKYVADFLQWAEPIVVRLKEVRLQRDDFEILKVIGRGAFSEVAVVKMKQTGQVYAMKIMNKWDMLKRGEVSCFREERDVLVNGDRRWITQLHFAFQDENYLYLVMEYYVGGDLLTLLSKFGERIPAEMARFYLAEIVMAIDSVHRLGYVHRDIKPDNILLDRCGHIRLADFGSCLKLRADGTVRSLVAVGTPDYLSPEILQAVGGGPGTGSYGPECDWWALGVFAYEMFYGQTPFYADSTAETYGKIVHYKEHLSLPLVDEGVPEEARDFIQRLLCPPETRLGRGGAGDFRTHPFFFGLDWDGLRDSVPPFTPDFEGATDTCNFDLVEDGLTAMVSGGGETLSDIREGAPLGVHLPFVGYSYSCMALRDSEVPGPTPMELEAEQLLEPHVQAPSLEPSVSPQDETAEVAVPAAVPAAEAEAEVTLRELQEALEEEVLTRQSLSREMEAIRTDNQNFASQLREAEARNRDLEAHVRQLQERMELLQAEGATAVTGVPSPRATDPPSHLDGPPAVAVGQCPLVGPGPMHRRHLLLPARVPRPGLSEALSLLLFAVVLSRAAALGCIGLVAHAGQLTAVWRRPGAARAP

[2] = molecular target: TRAF2 and NCK-interacting protein kinase (Homo sapiens) (UniProt Q9UKE5)
[3] = molecular target: Calcium/calmodulin-dependent protein kinase type II subunit delta (Homo sapiens) (UniProt Q13557)
[4] = molecular target: Serine/threonine-protein kinase PAK 4 (Homo sapiens) (UniProt O96013)
[5] = molecular target: Serine/threonine-protein kinase PLK1 (Homo sapiens) (UniProt P53350)
[6] = molecular target: Calcium/calmodulin-dependent protein kinase kinase 2 (Homo sapiens, UniProt Q96RR4)
[7] = molecular target: Mitogen-activated protein kinase 11 (Homo sapiens, UniProt Q15759)
[8] = molecular target: Serine/threonine-protein kinase PAK 5 (Homo sapiens) (UniProt Q9P286)
[9] = molecular target: Glycogen synthase kinase-3 beta (Homo sapiens, UniProt P49841)
[10] = molecular target: Casein kinase I isoform gamma-3 (Homo sapiens) (UniProt Q9Y6M4)
[11] = molecular target: Dual specificity protein kinase CLK2 (Homo sapiens) (UniProt P49760)
[12] = molecular target: Serine/threonine-protein kinase pim-2 (Homo sapiens, UniProt Q9P1W9)
[13] = molecular target: cAMP-dependent protein kinase catalytic subunit alpha (Homo sapiens) (UniProt P17612)
[14] = molecular target: T2, Serine/threonine-protein kinase 4 (Homo sapiens) (UniProt Q13043)
T2 sequence (whole entry): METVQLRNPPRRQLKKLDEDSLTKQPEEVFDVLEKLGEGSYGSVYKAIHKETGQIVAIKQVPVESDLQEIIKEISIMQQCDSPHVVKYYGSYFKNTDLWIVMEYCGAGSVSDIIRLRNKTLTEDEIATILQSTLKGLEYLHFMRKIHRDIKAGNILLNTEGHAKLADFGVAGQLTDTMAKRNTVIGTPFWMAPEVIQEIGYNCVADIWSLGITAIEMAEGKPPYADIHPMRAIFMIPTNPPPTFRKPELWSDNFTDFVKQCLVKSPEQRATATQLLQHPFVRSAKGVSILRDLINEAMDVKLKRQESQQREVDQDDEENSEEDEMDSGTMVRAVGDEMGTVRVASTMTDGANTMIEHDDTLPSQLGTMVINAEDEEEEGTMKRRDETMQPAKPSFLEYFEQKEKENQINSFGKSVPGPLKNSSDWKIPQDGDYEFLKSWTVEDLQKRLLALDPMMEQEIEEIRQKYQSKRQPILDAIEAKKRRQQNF

[15] = molecular target: Cyclin-dependent kinase 16 (Homo sapiens) (UniProt Q00536)
[16] = molecular target: T3, Serine/threonine-protein kinase VRK1 (Homo sapiens) (UniProt Q99986)
T3 sequence (whole entry): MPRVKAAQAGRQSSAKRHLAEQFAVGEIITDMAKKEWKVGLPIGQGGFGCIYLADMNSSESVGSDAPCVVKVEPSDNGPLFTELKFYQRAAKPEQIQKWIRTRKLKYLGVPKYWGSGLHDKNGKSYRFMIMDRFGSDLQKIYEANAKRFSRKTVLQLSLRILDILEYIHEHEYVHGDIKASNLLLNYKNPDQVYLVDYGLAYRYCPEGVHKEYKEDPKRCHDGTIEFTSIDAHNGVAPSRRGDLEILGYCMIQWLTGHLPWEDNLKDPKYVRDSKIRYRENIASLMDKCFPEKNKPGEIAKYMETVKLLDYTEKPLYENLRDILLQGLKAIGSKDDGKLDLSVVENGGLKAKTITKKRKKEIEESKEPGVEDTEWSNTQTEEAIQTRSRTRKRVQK

Chain of Calcium/calmodulin-dependent protein kinase kinase 2 (Q96RR4 2-588 limits assumed): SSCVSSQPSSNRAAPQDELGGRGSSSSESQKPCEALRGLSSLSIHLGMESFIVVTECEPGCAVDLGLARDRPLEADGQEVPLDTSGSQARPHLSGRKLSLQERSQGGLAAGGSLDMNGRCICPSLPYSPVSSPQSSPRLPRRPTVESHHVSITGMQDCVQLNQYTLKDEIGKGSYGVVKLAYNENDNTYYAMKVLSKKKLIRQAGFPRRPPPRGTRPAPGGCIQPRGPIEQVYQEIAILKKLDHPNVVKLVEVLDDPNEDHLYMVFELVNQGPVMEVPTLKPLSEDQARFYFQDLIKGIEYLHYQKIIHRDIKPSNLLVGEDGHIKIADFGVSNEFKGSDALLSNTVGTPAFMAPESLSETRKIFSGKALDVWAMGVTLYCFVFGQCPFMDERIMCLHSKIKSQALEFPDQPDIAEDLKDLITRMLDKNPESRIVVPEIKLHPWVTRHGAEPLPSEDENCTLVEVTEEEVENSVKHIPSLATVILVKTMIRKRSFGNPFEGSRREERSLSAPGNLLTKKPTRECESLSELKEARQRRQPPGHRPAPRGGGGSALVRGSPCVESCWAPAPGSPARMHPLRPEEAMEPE
Chain of Calcium/calmodulin-dependent protein kinase type II subunit delta (Homo sapiens) (Q13557 whole entry): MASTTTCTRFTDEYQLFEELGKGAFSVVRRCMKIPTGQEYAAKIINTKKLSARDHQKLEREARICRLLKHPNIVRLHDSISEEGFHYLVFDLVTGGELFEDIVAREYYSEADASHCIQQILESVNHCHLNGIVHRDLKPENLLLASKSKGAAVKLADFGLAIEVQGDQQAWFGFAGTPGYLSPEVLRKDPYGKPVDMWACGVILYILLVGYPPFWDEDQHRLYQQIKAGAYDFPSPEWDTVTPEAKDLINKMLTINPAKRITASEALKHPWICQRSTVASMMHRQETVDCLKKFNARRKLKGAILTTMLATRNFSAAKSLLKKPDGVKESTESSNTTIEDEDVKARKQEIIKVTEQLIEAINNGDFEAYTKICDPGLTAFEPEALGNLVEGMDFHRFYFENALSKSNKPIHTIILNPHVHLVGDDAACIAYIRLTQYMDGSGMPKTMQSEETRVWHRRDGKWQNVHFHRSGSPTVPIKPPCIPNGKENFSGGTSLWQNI
Chain of Serine/threonine-protein kinase PAK 4 (Homo sapiens) (O96013 whole entry, looked up): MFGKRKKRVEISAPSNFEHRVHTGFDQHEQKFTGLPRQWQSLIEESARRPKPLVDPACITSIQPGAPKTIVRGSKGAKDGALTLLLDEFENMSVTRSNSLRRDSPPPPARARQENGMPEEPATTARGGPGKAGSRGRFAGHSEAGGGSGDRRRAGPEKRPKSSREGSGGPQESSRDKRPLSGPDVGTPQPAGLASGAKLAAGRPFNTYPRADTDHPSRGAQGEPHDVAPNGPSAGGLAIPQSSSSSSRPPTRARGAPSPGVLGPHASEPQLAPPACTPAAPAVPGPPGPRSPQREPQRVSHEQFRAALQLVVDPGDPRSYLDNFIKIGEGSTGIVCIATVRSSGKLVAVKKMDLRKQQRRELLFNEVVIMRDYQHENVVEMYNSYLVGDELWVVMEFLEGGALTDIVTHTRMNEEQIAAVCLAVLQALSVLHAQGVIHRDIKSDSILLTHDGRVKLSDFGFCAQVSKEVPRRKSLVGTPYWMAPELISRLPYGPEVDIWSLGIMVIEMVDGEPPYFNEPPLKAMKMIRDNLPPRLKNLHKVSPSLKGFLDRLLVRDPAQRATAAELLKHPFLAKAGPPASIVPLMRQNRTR
Chain of Dual specificity protein kinase CLK2 (Homo sapiens) (P49760 whole entry, looked up): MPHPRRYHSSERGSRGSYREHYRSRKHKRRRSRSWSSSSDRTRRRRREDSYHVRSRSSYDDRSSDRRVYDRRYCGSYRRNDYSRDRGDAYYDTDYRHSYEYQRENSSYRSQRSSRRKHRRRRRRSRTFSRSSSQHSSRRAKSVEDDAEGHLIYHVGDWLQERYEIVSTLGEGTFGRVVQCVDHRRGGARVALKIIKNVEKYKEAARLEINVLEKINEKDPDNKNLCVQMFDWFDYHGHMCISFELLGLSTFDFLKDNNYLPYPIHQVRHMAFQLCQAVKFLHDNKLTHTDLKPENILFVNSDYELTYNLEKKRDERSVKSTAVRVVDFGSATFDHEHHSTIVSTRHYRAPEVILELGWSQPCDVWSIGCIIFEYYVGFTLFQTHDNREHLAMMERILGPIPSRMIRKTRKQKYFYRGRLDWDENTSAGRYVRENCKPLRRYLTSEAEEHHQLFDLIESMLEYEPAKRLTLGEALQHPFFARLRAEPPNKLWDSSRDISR
Chain of TRAF2 and NCK-interacting protein kinase (Homo sapiens) (Q9UKE5 whole entry, looked up): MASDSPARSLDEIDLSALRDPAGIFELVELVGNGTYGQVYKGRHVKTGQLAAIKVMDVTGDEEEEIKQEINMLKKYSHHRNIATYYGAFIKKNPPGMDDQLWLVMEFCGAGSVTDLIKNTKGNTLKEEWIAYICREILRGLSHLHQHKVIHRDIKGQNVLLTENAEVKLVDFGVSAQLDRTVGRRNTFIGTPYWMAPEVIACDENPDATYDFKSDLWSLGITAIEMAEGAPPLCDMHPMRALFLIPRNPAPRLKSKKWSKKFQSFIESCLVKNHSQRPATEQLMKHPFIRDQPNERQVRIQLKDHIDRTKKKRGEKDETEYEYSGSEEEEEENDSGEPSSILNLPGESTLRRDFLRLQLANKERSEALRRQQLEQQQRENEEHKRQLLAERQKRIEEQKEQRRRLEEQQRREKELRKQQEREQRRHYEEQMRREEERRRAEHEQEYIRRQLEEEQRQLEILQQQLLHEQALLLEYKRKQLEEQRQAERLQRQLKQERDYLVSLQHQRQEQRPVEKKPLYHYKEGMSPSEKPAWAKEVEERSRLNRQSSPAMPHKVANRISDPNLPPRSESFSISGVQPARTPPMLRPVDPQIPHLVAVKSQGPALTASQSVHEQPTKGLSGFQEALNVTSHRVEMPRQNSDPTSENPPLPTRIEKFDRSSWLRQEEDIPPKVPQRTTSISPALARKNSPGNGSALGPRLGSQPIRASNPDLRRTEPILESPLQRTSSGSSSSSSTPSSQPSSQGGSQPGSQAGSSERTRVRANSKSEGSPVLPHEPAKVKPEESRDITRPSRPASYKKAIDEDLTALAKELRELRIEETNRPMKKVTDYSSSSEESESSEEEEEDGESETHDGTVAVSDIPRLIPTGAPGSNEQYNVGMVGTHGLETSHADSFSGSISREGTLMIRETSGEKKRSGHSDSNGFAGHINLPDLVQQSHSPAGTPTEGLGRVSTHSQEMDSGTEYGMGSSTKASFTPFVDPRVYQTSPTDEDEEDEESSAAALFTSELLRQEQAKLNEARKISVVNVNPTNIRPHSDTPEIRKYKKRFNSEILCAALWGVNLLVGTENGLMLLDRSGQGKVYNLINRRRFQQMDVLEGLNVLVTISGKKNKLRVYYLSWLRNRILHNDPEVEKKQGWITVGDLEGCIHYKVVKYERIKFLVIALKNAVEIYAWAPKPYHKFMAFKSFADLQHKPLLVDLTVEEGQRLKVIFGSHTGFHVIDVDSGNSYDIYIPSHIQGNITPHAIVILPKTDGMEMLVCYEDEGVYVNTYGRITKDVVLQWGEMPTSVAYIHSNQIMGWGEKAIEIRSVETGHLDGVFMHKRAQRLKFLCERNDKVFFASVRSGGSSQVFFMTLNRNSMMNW
Chain of Cyclin-dependent kinase 16 (Homo sapiens) (Q00536 whole entry): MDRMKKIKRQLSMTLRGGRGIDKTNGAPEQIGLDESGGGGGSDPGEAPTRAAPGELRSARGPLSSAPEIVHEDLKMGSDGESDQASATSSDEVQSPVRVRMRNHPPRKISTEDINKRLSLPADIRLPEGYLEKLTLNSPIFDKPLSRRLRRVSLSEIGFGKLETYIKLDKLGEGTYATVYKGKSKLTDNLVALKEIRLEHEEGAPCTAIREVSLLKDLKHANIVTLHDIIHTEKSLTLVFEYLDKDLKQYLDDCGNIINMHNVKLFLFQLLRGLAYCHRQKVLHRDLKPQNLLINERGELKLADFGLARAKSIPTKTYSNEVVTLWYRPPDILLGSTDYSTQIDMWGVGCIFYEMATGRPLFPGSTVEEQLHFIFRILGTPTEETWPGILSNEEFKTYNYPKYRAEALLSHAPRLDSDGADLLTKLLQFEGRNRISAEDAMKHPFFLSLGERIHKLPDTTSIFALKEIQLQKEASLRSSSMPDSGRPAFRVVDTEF
Chain of Casein kinase I isoform gamma-3 (Homo sapiens) (Q9Y6M4 whole entry, looked up, canonical isoform): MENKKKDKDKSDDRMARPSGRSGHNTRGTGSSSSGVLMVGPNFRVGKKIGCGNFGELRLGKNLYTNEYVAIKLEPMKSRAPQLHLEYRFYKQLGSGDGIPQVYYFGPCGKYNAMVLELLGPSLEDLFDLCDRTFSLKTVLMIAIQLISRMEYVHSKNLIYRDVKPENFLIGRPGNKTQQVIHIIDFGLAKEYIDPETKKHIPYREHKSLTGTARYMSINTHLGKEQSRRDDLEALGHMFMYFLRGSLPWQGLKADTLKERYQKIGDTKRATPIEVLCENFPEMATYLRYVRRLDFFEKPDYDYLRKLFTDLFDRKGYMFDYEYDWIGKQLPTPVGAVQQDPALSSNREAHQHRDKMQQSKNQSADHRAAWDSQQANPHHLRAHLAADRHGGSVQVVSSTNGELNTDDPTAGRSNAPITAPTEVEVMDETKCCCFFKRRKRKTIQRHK
Chain of Glycogen synthase kinase-3 beta (P49841 whole entry, looked up, canonical isoform): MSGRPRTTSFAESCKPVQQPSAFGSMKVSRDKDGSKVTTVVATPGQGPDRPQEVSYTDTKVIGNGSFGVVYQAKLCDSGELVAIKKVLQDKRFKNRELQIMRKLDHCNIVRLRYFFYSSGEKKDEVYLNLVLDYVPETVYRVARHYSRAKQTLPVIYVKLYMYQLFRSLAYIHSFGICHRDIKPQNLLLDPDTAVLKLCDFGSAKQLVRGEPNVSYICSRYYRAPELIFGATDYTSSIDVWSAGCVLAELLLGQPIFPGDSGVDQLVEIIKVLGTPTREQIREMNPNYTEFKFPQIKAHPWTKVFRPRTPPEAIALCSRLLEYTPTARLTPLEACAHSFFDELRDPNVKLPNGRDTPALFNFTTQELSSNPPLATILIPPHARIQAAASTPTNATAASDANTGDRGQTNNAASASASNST

Row | ΔTm [2] | ΔTm [14] | ΔTm [16] | SMILES | ΔTm [1] | ΔTm [3] | ΔTm [4] | ΔTm [5] | ΔTm [6] | ΔTm [7] | ΔTm [8] | ΔTm [9] | ΔTm [10] | ΔTm [11] | ΔTm [12] | ΔTm [13] | ΔTm [15]
1 | 0 °C | 0.1 °C | – | CC(C)c1nn(-c2c(Cl)cccc2Cl)c2nc(Cc3ccc(OCCO)cc3)[nH]c(=O)c12 | -1.2 °C | 0.6 °C | 2.2 °C | 1.4 °C | 1.7 °C | 0.7 °C | 6.2 °C | 0.2 °C | 1.3 °C | 1.3 °C | -0.1 °C | -0.1 °C | -0.6 °C
2 | -1.2 °C | 0.4 °C | – | CN(c1cccnc1)c1cc2c(Nc3ccc(F)c(Cl)c3)c(C#N)cnc2cn1 | 5.3 °C | 2.7 °C | 2.6 °C | 0.7 °C | 1.9 °C | 0.7 °C | 1 °C | 6.3 °C | 3.7 °C | 4.3 °C | 10.7 °C | 2.2 °C | 0.1 °C
3 | 0.4 °C | 0.1 °C | 1.5 °C | Cc1[nH]c(/C=C2\C(=O)Nc3ccc(S(=O)(=O)N(C)c4cccc(Cl)c4)cc32)c(C)c1C(=O)N1CCN(C)CC1 | 2.2 °C | 0.5 °C | 1.4 °C | 1.9 °C | 1.2 °C | 0.1 °C | 0.9 °C | 4.2 °C | 1.1 °C | 5.9 °C | 1 °C | 3.1 °C | -0.6 °C
4 | 0.9 °C | 3 °C | – | Cc1nc(N)sc1-c1ccnc(Nc2cccc([N+](=O)[O-])c2)n1 | 7.6 °C | -0.4 °C | 1.6 °C | 4.6 °C | 3.6 °C | 1.2 °C | 7.1 °C | 2.1 °C | 1.3 °C | 7.9 °C | 8.1 °C | 4.8 °C | 3.9 °C

The next lines start with the molecule.

Row | SMILES | ΔTm [2] | ΔTm [14] | ΔTm [16] | ΔTm [1] | ΔTm [3] | ΔTm [4] | ΔTm [5] | ΔTm [6] | ΔTm [7] | ΔTm [8] | ΔTm [9] | ΔTm [10] | ΔTm [11] | ΔTm [12] | ΔTm [13] | ΔTm [15]
5 | Cc1ccc(NC2=CC(=O)c3sc(C)nc3C2=O)cc1 | -1.4 °C | -1.3 °C | – | -2.4 °C | 0.1 °C | -0.7 °C | -0.2 °C | -2.4 °C | -0.6 °C | 0.4 °C | 0.4 °C | -4.3 °C | -1 °C | -0.6 °C | -0.4 °C | -0.9 °C
6 | CC(C)[C@H](CO)Nc1nc(Nc2cc(N)cc(Cl)c2)c2ncn(C(C)C)c2n1 [AMINOPURVALANOL] | – | – | – | 2 °C | 0.3 °C | -0.1 °C | 1 °C | 3.3 °C | 2.8 °C | 0.3 °C | 0.7 °C | 1.1 °C | 4.5 °C | -0.1 °C | 6.5 °C | 8.1 °C
7 | CN1CCc2[nH]c(=S)c(C#N)c(-c3cccs3)c2C1 | – | – | – | 7.8 °C | -0.8 °C | -0.4 °C | 2.4 °C | 3.8 °C | 4.3 °C | 0.8 °C | 4 °C | 0.2 °C | 6.2 °C | -0.3 °C | 14.1 °C | 4.1 °C
8 | O=C(Nc1cccc(Nc2nccc(Nc3cccc(C(F)(F)F)c3)n2)c1)C1CC1 [ANILINOPYRIMIDINE1] | 0.2 °C | 0.9 °C | – | 9.3 °C | 0.6 °C | 1.5 °C | 3.3 °C | 2 °C | 0.8 °C | 2.6 °C | 1.1 °C | 2.2 °C | 0.6 °C | 6.9 °C | 1.3 °C | 3.2 °C
